For one experiment, the target named is T1, L858R/T790M/C797S EGFR (Homo sapiens, UniProt P00533, C797S/L858R/T790M).
T1 construct: expressed in transfected cells; host or cells: H1975 clone #25 (lentiviral over-expression, endogenous EGFR knocked out by sgRNA)
Briefly: EGFR degradation HTRF assay in H1975-clone #25 (LTC) cells. Format: cell-based. As to conditions: 16h treatment; for DC50: H1975 # 25-LTC (L858R/T790M/C797S), HTRF; for Dmax: NCI-H1975, H1975 # 25-LTC (L858R/T790M/C797S), maximum percentage of degradation. The procedure, abridged:
(§1)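 Remaining EGFR protein was measured by HTRF (337 nm excitation, 665/620 nm emission) in lysates after overnight antibody incubation. Cells had been exposed for 16 h to an 8-point, 5-fold series starting at 10 uM, and DC50 values were fitted with a Hill equation.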
On the technique in general: In TR-FRET formats the signal depends on donor and acceptor labels being close together.

A further experiment relates to Del19/T790M/C797S EGFR. Briefly: EGFR degradation HTRF assay in H1975-clone #28 (DTC) cells. Format: cell-based. As to conditions: H1975 # 28 DTC (Del19/T790M/C797S), 16h treatment; for DC50: HTRF; for Dmax (%): maximum percentage of degradation. The essentials:
as §1

Structures are written as SMILES.

A word on the DC50: it is the concentration at which degradation of the target reaches its halfway point. A low value points to degradation at low concentration. As a reminder, the Dmax is the largest share of the target that was removed.

T1 sequence (P00533 25-1210 T790M/C797S/L858R): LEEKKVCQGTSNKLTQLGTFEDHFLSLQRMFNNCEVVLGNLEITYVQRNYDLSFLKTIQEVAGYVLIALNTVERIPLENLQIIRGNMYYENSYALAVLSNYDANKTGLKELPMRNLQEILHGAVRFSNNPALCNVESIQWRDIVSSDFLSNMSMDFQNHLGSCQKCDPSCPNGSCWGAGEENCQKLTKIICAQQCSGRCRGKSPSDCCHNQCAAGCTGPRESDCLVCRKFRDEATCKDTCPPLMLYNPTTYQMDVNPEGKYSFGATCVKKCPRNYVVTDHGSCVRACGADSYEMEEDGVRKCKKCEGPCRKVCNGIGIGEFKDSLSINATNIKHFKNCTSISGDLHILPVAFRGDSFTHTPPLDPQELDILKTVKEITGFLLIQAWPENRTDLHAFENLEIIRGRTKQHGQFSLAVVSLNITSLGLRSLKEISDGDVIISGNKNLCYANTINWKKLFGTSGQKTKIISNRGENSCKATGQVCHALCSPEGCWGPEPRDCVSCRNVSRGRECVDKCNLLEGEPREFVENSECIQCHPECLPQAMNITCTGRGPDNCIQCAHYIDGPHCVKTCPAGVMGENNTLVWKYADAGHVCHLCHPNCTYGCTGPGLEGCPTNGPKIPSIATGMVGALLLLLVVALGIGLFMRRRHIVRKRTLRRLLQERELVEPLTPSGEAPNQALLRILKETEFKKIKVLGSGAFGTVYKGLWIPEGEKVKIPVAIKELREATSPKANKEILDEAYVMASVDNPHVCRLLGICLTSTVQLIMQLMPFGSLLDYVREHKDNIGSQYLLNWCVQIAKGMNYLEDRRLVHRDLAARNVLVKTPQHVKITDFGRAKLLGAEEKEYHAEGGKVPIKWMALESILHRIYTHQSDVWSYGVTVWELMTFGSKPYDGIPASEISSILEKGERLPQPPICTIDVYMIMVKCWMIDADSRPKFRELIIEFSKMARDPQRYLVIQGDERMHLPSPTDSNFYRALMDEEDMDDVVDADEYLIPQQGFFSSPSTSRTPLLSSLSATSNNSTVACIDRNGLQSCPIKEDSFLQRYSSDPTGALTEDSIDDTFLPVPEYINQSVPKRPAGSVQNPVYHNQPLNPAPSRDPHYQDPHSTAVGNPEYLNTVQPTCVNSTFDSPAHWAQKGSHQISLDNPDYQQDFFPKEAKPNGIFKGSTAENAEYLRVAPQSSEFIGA

`Cc1cc2cc(n1)-c1cnn(C)c1OCCC[C@@H](C)CN1/C(=N/C2=O)Nc2ccc(C(=O)N(C)[C@@H](C)C3CCN(CCc4cc(F)c(C5CCC(=O)NC5=O)c(F)c4)CC3)cc21` (stereo partly drawn) [Example 272, (R,E)-N—((S)-1-(1-(4-((R)-2,6-dioxopiperidin-3-yl)-3,5-difluorophenethyl)piperidin-4-yl)ethyl)-N,1,2^6,7-tetramethyl-3-oxo-5^2,5^3-dihydro-1^1H,5^1H-11-oxa-4-aza-5(2,1)-benzo[d]imidazola-2(2,4)-pyridina-1(4,5)-pyrazolacycloundecaphane-5^6-carboxamide]: on L858R/T790M/C797S EGFR, the DC50 stood at 1.36 nM and the Dmax came out at 87.2%. Besides, in the experiment on Del19/T790M/C797S EGFR, half-maximal degradation (DC50) was put at 1.52 nM and the “Dmax (%)” value came out at 76.03%.
For `Cc1cc2cc(n1)-c1cnn(C)c1OCCC[C@@H](C)CN1/C(=N/C2=O)Nc2ccc(CN3CCN(C(=O)C4CN(c5cc(F)c([C@H]6CCC(=O)NC6=O)c(F)c5)C4)CC3)cc21` [Example 76, (R)-3-(2,6-difluoro-4-(3-(4-(((R,E)-1^1,2^6,7-trimethyl-3-oxo-5^2,5-dihydro-1^1H,5^1H-11-oxa-4-aza-5(2,1)-benzo[d]imidazola-2(2,4)-pyridina-1(4,5)-pyrazolacycloundecaphane-5^6-yl)methyl)piperazine-1-carbonyl)azetidin-1-yl)phenyl)piperidine-2,6-dione], on L858R/T790M/C797S EGFR, the DC50 was 0.9 nM and the Dmax is 84.4%. Also, in the experiment with Del19/T790M/C797S EGFR, half-maximal degradation (DC50) was put at 0.7 nM and the “Dmax (%)” value was determined as 75.8%.
The corresponding values for `Cc1cc2cc(n1)-c1cnn(C)c1OCCC[C@@H](C)CN1/C(=N/C2=O)Nc2ccc(N3CC4(CCN(CC5CN(c6cc(F)c([C@H]7CCC(=O)NC7=O)c(F)c6)C5)CC4)CC3=O)cc21` [Example 406, (R)-3-(2,6-difluoro-4-(3-((3-oxo-2-((R,E)-1^1,2^6,7-trimethyl-3-oxo-5^2,5^3-dihydro-1^1H,5^1H-11-oxa-4-aza-5(2,1)-benzo[d]imidazola-2(2,4)-pyridina-1(4,5)-pyrazolacycloundecaphane-5^6-yl)-2,8-diazaspiro[4.5]decan-8-yl)methyl)azetidin-1-yl)phenyl)piperidine-2,6-dione] are 1.65 nM, 89.6%, 1.09 nM and 85.15%.
For `COC[C@@H]1CN(c2cc(F)c([C@H]3CCC(=O)NC3=O)c(F)c2)CCN1C(=O)C1CCN(c2ccc3c(c2)N2C[C@H](C)CCCOc4c(cnn4C)-c4cc(cc(C)n4)C(=O)/N=C/2N3)CC1` [Example 357, (R)-3-(2,6-difluoro-4-((S)-3-(methoxymethyl)-4-(1-((R,E)-1^1,2^6,7-trimethyl-3-oxo-5^2,5^3-dihydro-1^1H,5^1H-11-oxa-4-aza-5(2,1)-benzo[d]imidazola-2(2,4)-pyridina-1(4,5)-pyrazolacycloundecaphane-5^6-yl)piperidine-4-carbonyl)piperazin-1-yl)phenyl)piperidine-2,6-dione], in that order: 0.824 nM, 87.6%, 0.903 nM and 73.73%.
`Cc1cc2cc(n1)-c1cnn(C)c1OCC[C@@H]1C[C@H]1CN1/C(=N/C2=O)Nc2ccc(N3CCN(C4CCN(c5cnc(C6CCC(=O)NC6=O)cc5C)CC4)CC3)cc21` (stereo partly drawn) [Example 470, 3-(5-(4-(4-((7^1R,7^2S,E)-1^1,2^6-dimethyl-3-oxo-5^2,5^3-dihydro-1^1H,5^1H-10-oxa-4-aza-5(2,1)-benzo[d]imidazola-2(2,4)-pyridina-1(4,5)-pyrazola-7(1,2)-cyclopropanacyclodecaphane-5^6-yl)piperazin-1-yl)piperidin-1-yl)-4-methylpyridin-2-yl)piperidine-2,6-dione]: on L858R/T790M/C797S EGFR, it took 0.849 nM to reach half-maximal degradation (DC50) and the Dmax came to 92.1%. Moreover, in the experiment with Del19/T790M/C797S EGFR, half-maximal degradation (DC50) was put at 0.617 nM and the “Dmax (%)” value was 86.76%.
At L858R/T790M/C797S EGFR, `Cc1cc2cc(n1)-c1cnn(C)c1OCCC[C@@H](C)CN1/C(=N/C2=O)Nc2ccc(C(=O)N(C)[C@@H]3CCN(CCc4cc(F)c([C@H]5CCC(=O)NC5=O)c(F)c4)C[C@H]3O)cc21` [Example 243, (R,E)-N-((3R,4R)-1-(4-((R)-2,6-dioxopiperidin-3-yl)-3,5-difluorophenethyl)-3-hydroxypiperidin-4-yl)-N,1^1,2^6,7-tetramethyl-3-oxo-5^2,5^3-dihydro-1^1H,5^1H-11-oxa-4-aza-5(2,1)-benzo[d]imidazola-2(2,4) -pyridina-1(4,5)-pyrazolacycloundecaphane-5^6-carboxamide] returned a DC50 of 0.677 nM and a Dmax of 92.1%. In addition, in the experiment with Del19/T790M/C797S EGFR, it took 2.9 nM to reach half-maximal degradation (DC50) and the “Dmax (%)” value is listed as 86.39%.
For `Cc1cc2cc(n1)-c1cnn(C)c1OCCC[C@@H](C)CN1/C(=N/C2=O)Nc2ccc(C3CCN(C4CCN(c5cc(F)c([C@H]6CCC(=O)NC6=O)c(F)c5)CC4)CC3)cc21` [Example 332, (R)-3-(2,6-difluoro-4-(4-((R,E)-1^1,2^6,7-trimethyl-3-oxo-5^2,5^3-dihydro-1^1H,5^1H-11-oxa-4-aza-5(2,1)-benzo[d]imidazola-2(2,4)-pyridina-1(4,5)-pyrazolacycloundecaphane-5^6-yl)-[1,4′-bipiperidin]-1′-yl)phenyl)piperidine-2,6-dione], in that order: 0.995 nM, 91.2%, 1.31 nM and 86.39%.
At L858R/T790M/C797S EGFR, `COC[C@@H]1CN(C2CCN(c3cc(F)c([C@H]4CCC(=O)NC4=O)c(F)c3)CC2)CCN1c1ccc2c(c1)N1C[C@H](C)CCCOc3c(cnn3C)-c3cc(cc(C)n3)C(=O)/N=C/1N2` [Example 386, (R)-3-(2,6-difluoro-4-(4-((S)-3-(methoxymethyl)-4-((R,E)-1^1,2^6,7-trimethyl-3-oxo-5^2,5^3-dihydro-1^1H,5^1H-11-oxa-4-aza-5(2,1)-benzo[d]imidazola-2(2,4)-pyridina-1(4,5)-pyrazolacycloundecaphane-5-yl)piperazin-1-yl)piperidin-1-yl)phenyl)piperidine-2,6-dione] registered a DC50 of 2.7 nM and a Dmax of 86.6%. In the experiment on Del19/T790M/C797S EGFR, the DC50 was determined as 2.01 nM and the “Dmax (%)” value was 72.30%.
Turning to `Cc1cc2cc(n1)-c1cnn(C)c1OCCC[C@@H](C)CN1/C(=N/C2=O)Nc2ccc(N3CCN(CC4CN(c5cc(F)c([C@H]6CCC(=O)NC6=O)c(F)c5)C4)[C@@H](CO)C3)cc21` [Example 422, (R)-3-(2,6-difluoro-4-(3-(((R)-2-(hydroxymethyl)-4-((R,E)-1^1,2^6,7-trimethyl-3-oxo-5^2,5^3-dihydro-1^1H,5^1H-li-oxa-4-aza-5(2,1)-benzo[d]imidazola-2(2,4)-pyridina-1(4,5)-pyrazolacycloundecaphane-5^6-yl)piperazin-1-yl)methyl)azetidin-1-yl)phenyl)piperidine-2,6-dione], on L858R/T790M/C797S EGFR, the DC50 was found to be 0.856 nM and the Dmax worked out at 92.2%. Also, in the experiment on Del19/T790M/C797S EGFR, the DC50 came out at 0.652 nM and the “Dmax (%)” value was found to be 83.55%.
At L858R/T790M/C797S EGFR, `Cc1cc2cc(n1)-c1cnn(C)c1OCCC[C@@H](C)CN1/C(=N/C2=O)Nc2ccc(N(C)C3CCN(C4CCN(c5cc(F)c([C@H]6CCC(=O)NC6=O)c(F)c5)CC4)CC3)cc21` [Example 214, (R)-3-(2,6-difluoro-4-(4-(methyl((R,E)-1^1,2^6,7-trimethyl-3-oxo-5^2,5^3-dihydro-1^1H,5^1H-11-oxa-4-aza-5(2,1)-benzo[d]imidazola-2(2,4)-pyridina-1(4,5)-pyrazolacycloundecaphane-5-yl)amino)-[1,4′-bipiperidin]-1′-yl)phenyl)piperidine-2,6-dione] displayed a DC50 of 2.59 nM and a Dmax of 79.4%. In addition, in the experiment on Del19/T790M/C797S EGFR, it took 1.32 nM to reach half-maximal degradation (DC50) and the “Dmax (%)” value stood at 72.32%.
For `Cc1cc2cc(n1)-c1cnn(C)c1OCCC[C@@H](C)CN1/C(=N/C2=O)Nc2ccc(N3CCN(C4CCN(c5cc(F)c([C@H]6CCC(=O)NC6=O)c(F)c5)CC4)CC3=O)cc21` [Example 374, (R)-3-(2,6-difluoro-4-(4-(3-oxo-4-((R,E)-1^1,2^6,7-trimethyl-3-oxo-5^2,5^3-dihydro-1^1H,5^1H-11-oxa-4-aza-5(2,1)-benzo[d]imidazola-2(2,4)-pyridina-1(4,5)-pyrazolacycloundecaphane-5^6-yl)piperazin-1-yl)piperidin-1-yl)phenyl)piperidine-2,6-dione], in that order: 0.591 nM, 92.7%, 0.583 nM and 81.48%.
The corresponding values for `Cc1cc2cc(n1)-c1cnn(C)c1OCC[C@H]1C[C@@H]1CN1/C(=N/C2=O)Nc2ccc(N3CCN(CC4CN(c5cc(F)c([C@H]6CCC(=O)NC6=O)c(F)c5)C4)CC3)cc21` [Example 461, (R)-3-(4-(3-((4-((7^1S,7^2R,E)-1^1,2^6-dimethyl-3-oxo-5^2,5^3-dihydro-1^1H,5^1H-10-oxa-4-aza-5(2,1)-benzo[d]imidazola-2(2,4)-pyridina-1(4,5)-pyrazola-7(1,2)-cyclopropanacyclodecaphane-5^6-yl)piperazin-1-yl)methyl)azetidin-1-yl)-2,6-difluorophenyl)piperidine-2,6-dione] are 1.64 nM, 90.6%, 0.702 nM and 84.7%.
